Data set [1] has as its target T1, CYP2D6 (Homo sapiens, UniProt P10635).
T1 construct: tissue Eurofins Scientific; host or cells: human liver microsomes
As to the kind of experiment: Cytochrome P450 inhibition assay in human liver microsomes, CYP2D6. In kind it is in vitro ADME. The note with it: human liver microsomes. The method, then: CYP inhibition assays were performed by Eurofins Scientific. Test compounds were incubated with human liver microsomes, followed by compound detection using high performance liquid chromatography with tandem mass spectrometry (HPLC-MS/MS).
A general note: Microsomes from liver hold many membrane-bound enzymes, among them those of drug oxidation.

In data set [2] the test system is alt-NHEJ. As to the kind of experiment: EJ-DR 384-well imaging assay, alt-NHEJ (RFP) readout. The note with it: for IC50: Homo sapiens.
A short description of data set [3]: Microsomal half-life study. The format is in vitro ADME. Conditions: mouse, mouse liver microsomes; read-out: mouse liver microsome half-life.
Data set [4] is described as follows: Cytotoxicity in the absence of DSB ligands (CT), Hoechst cell count. The format is cell-based, human. The note with it: human, EJ-DR U2OS cells; no DSB ligands; Table 1; read-out: Cytotoxicity IC50.
In data set [5] the test system is HR. As to the kind of experiment: EJ-DR 384-well imaging assay, HR (GFP) readout. The note with it: Homo sapiens, read-out: HR IC50.
Data set [6] is described as follows: In vivo pharmacokinetic study, plasma. The method, then:
(§1) These measurements were used to calculate various pharmacokinetic parameters critical to bioavailability including time to reach maximum concentration (tmax), maximum concentration achieved (Cmax), and half-life (t1/2) (Figure 5C, 5D, Supplementary Table 1).
(§2) Compound concentrations were measured at these time-points using Liquid Chromatography with tandem mass spectrometry (LC-MS-MS). Pharmacokinetic studies were performed by orally dosing test compounds at 30 mg/kg dissolved in 50% PEG400 and 50% water in female athymic nude mice. Plasma and brain tissue concentration were measured using mass spectrometry (MS).

Data set [7] is described as follows: In vivo pharmacokinetic study, brain tissue. The note with it: female, athymic nude, mouse, brain, po, 30 mg/kg. Here is the method:
as §1, §2

For data set [8] the following is noted: cited from earlier work.
In data set [9] the test system is alt-NHEJ. Conditions: ratio; Supplementary Table 2.
Data set [10] concerns EJ-DR U2OS cells. As to the kind of experiment: Cytotoxicity in the absence of DSB ligands (CT), Hoechst cell count. In kind it is cell-based, human. Conditions: Homo sapiens, U2OS; Supplementary Table 2, mean ± SEM of four technical replicates.
The mark [11] stands for this setting: oral 30 mg/kg, female athymic nude mice.
Where [12] appears, read: recurrent GBM patients, mibefradil with hypofractionated RT.

The values below come from paper PMC8092340 (Oncotarget, 2021).

Entries after “also recorded” stand apart in the source; their conditions may differ. Where two headings read alike, the source gives them in different places.

T1 sequence (P10635 whole entry): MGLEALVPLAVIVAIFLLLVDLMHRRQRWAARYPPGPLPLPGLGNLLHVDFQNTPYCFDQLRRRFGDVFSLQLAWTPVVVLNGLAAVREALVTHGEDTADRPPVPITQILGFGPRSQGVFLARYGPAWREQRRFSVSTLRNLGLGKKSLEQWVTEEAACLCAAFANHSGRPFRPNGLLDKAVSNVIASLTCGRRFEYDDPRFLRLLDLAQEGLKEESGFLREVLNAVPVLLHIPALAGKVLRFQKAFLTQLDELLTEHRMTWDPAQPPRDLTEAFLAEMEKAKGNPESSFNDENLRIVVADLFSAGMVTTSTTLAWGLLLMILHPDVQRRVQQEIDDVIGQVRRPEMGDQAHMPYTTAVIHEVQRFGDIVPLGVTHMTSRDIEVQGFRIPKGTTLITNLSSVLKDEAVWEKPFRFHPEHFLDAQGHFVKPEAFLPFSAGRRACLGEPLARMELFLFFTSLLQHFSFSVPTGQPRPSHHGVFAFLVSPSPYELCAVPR

By IC50 is commonly meant the concentration needed to halve the response being measured. As a reminder, the half-life is the time in which the quantity being followed falls by half. In general, Cmax refers to the maximum level reached in the sampled fluid or tissue. Regarding `COCC(=O)O[C@]1(CCN(C)CCCc2nc3ccccc3[nH]2)CCc2cc(F)ccc2[C@@H]1C(C)C` [Mibefradil, mibefradil], the IC50 was 600 nM in [1]; roughly 4 µM in data set [2] (U2OS, read-out: alt-NHEJ IC50); 3.8 µM in [2] (read-out: nc-EJ IC50); greater than 60 µM in data set [5]. Besides, the “effect on alt-NHEJ and HR in the EJ-DR assay” value in [2] (EJ-DR U2OS cells) is recorded as “selective inhibition of alt-NHEJ over HR without significant cellular cytotoxicity; also recorded: selective inhibition of alt-NHEJ over HR”. For the same compound, the half-life in data set [3] is 15 min; in [6] (female, athymic nude, mouse, plasma, po, 30 mg/kg), 156 min; in data set [7] it was roughly 480 min. Moreover, in data set [4], the 50% inhibitory concentration (IC50) at 96 h came out at 10.5 µM. Also, the Cmax in data set [6] (female, athymic nude, mouse, plasma, po, 30 mg/kg, Maximum concentration (Cmax), oral 30 mg/kg, female athymic nude mice, YU252222 given as methyl ester prodrug) stood at 1090 ng/mL. Also, the “% AUC Extrapolation” value in data set [6] (setting [11]) was 0.4%. Further, the “AUC(0-x)/Dose” value in data set [6] (setting [11]) was found to be 161 ng·h/mL/mg/kg. Further, the Cmax/Dose in data set [6] (setting [11]) was 36.3 ng/mL/mg/kg. Further, the “Time at which Cmax was observed (tmax)” value in data set [6] (setting [11]) worked out at 1.0 h. In data set [8] (mibefradil phase I trial, ref manuscript under preparation, 12), the “patients showing QT prolongation” value is given as “five out of 19”. For the same compound, the “QT interval elongation, dose-limiting toxicity” value in [8] (setting [12]) was 28%. For the same compound, the “sinus bradycardia, dose-limiting toxicity” value in data set [8] (setting [12]) was 28%.

Consider `Cn1ncc(Cl)c1-c1cc(C(=O)N[C@H](CN)Cc2cccc(F)c2)sc1Cl` [Afuresertib], for which the “Selectivity Index (HR IC50/alt-NHEJ IC50)” value in [9] amounted to 7.43. The IC50 in [2] (read-out: alt-NHEJ IC50) was found to be 0.61 ± 0.46 µM; in data set [10] it was 14.2 ± 2.32 µM; in data set [5], 4.53 ± 5.75 µM.
